# Patent publication US6156790A, “C-10 carbon-substituted artemisinin-like trioxane compounds having antimalarial, antiproliferative and antitumor activities” (priority 1997, dated 2000)
# Entries after “also recorded” stand apart in the source; their conditions may differ. Where two headings read alike, the source gives them in different places.
# Tests used:
# MDA-MB231/ATCC = assay: cells; format: cell-based; settings: Homo sapiens
# SNB-75 = assay: cells; format: cell-based; settings: Homo sapiens, read-out: Log10 TGI (converted)
# BT-549 = assay: cells; format: cell-based; settings: Homo sapiens
# TK-10 = assay: cells; format: cell-based; settings: Homo sapiens, read-out: Log10 GI50 (converted)
# OVCAR-8 = assay: NCI 60 cell line screen (SRB), ovarian cancer; format: cell-based; settings: Homo sapiens
# KM12 = assay: cells; format: cell-based; settings: Homo sapiens, read-out: Log10 TGI (converted)
# 60 cell line panel = assay: NCI 60 cell line screen, whole panel; format: cell-based
# HCT-15 = assay: cells; format: cell-based; settings: Homo sapiens, HCT-15; read-out: Log10 TGI (converted)
# MOLT-4 = assay: cells; settings: Homo sapiens
# Protocol: The screening assay is performed on a 96-well microtitre plates.
# Dose response curves, shown in the above mentioned Figures, are obtained by exposing various cancer cell lines to compounds having a known concentration ([log10 M]), as discussed in detail above, and then plotting the percentage growth of each cell line for each concentration. […] As discussed previously, the five drug dilutions routinely tested range from 10^-4 to 10^-9 molar.
# HT29 = assay: cells; format: cell-based; settings: Homo sapiens, HT-29, read-out: Log10 TGI (converted)
# NCI-H226 = assay: NCI 60 cell line screen (SRB), non-small cell lung cancer; format: cell-based; settings: Homo sapiens
# NCI-H460 = assay: cells; format: cell-based; settings: Homo sapiens
# RXF 393 = assay: cells; settings: Homo sapiens
# A498 = assay: cells; format: cell-based; settings: Homo sapiens
# A549/ATCC = assay: NCI 60 cell line screen (SRB), non-small cell lung cancer; format: cell-based; settings: Homo sapiens
# MCF7 = assay: cells; format: cell-based; settings: Homo sapiens, MCF7
# SF-268 = assay: NCI 60 cell line screen (SRB), CNS cancer; format: cell-based; settings: Homo sapiens
# PC-3 = assay: cells; format: cell-based; settings: Homo sapiens, PC-3
# HOP-62 = assay: cells; format: cell-based; settings: Homo sapiens
# U251 = assay: cells; format: cell-based; settings: Homo sapiens
# T-47D = assay: cells; format: cell-based; settings: Homo sapiens, T47D; T-47D; read-out: Log10 TGI (converted)
# SK-MEL-2 = assay: cells; format: cell-based; settings: Homo sapiens
# ACHN = assay: cells; settings: Homo sapiens
# HCT-116 = assay: cells; format: cell-based; settings: Homo sapiens
# SF-539 = assay: cells; format: cell-based; settings: Homo sapiens
# SR = assay: cells; format: cell-based; settings: Homo sapiens, read-out: Log10 TGI (converted)
# SNB-19 = assay: cells; format: cell-based; settings: Homo sapiens
# M14 = assay: NCI 60 cell line screen (SRB), melanoma; settings: Homo sapiens
# NCI-H23 = assay: NCI 60 cell line screen (SRB), non-small cell lung cancer; format: cell-based; settings: Homo sapiens
# IGROVI = assay: cells; settings: 60 cell, read-out: Log10 TGI
# EKVX = assay: NCI 60 cell line screen (SRB), non-small cell lung cancer; format: cell-based; settings: Homo sapiens
# MDA-N = assay: cells; format: cell-based; settings: Homo sapiens
# SW-620 = assay: NCI 60 cell line screen (SRB), colon cancer; format: cell-based; settings: Homo sapiens, read-out: Log10 TGI (converted)
# UO-31 = assay: NCI 60 cell line screen (SRB), renal cancer; format: cell-based; settings: Homo sapiens, read-out: Log10 TGI (converted)
# HOP-92 = assay: NCI 60 cell line screen (SRB), non-small cell lung cancer; format: cell-based; settings: Homo sapiens
# [1] = read-out: Log10 GI50 (converted)
# [2] = read-out: Log10 TGI (converted)
# [3] = read-out: Log10 LC50 (converted)
compound,measurement,setting,value
C[C@H]1[C@@H](CC(=O)c2ccc(C(=O)C[C@H]3O[C@@H]4O[C@@]5(C)CC[C@H]6[C@H](C)CC[C@@H]([C@H]3C)[C@@]46OO5)cc2)O[C@@H]2O[C@@]3(C)CC[C@H]4[C@H](C)CC[C@@H]1[C@@]24OO3 [Dimer 21],GI50,"MDA-MB231/ATCC; MDA-MB-231, read-out: Log10 GI50 (converted)",0.178 µM
same,CC50,"MDA-MB231/ATCC; MDA-MB-231, read-out: Log10 LC50 (converted)",46.8 µM
same,IC (TGI),"MDA-MB231/ATCC; MDA-MB-231, read-out: Log10 TGI (converted)",16.2 µM
same,IC (TGI),SNB-75,34.7 µM
same,GI50,BT-549; [1],0.263 µM
same,IC (TGI),BT-549; [2],49 µM
same,GI50,TK-10,0.00288 µM
same,CC50,OVCAR-8; [3],41.7 µM
same,IC (TGI),OVCAR-8; [2],12.3 µM
same,IC (TGI),KM12,14.5 µM
same,GI50,"60 cell line panel; 60 cell, mean over panel, read-out: Log10 GI50 MG MID (converted)",0.0589 µM
same,IC (TGI),"60 cell line panel; 60 cell, mean over panel, read-out: Log10 TGI MG MID (converted)",93300 µM
same,CC50,"60 cell line panel; Homo sapiens, 60 cell, mean over panel, read-out: Log10 LC50 MG MID (converted)",64.6 µM
same,potency compared with artemisinin,"60 cell line panel; Tables III, IV and V",more potent than artemisinin
same,potency compared with paclitaxel,"60 cell line panel; Tables III, IV and V",in most instances are as potent and in some instances more potent than paclitaxel; also recorded: equivalent to and in many instances higher in potency than paclitaxel
same,Log10 TGI Range,60 cell line panel; panel,4.00
same,IC (TGI),HCT-15,24.5 µM
same,IC (TGI),"MOLT-4; MOLT-4, read-out: Log10 TGI",12.9 µM
same,IC (TGI),"MOLT-4; MOLT-4, read-out: concentration for cytostasis",~100 µM
same,GI50,"MOLT-4; MOLT-4, read-out: concentration for primary growth inhibition",< 0.1 µM
same,IC (TGI),HT29,15.1 µM
same,GI50,NCI-H226; [1],0.0832 µM
same,CC50,NCI-H226; [3],> 100 µM
same,IC (TGI),NCI-H226; [2],28.2 µM
same,IC (TGI),"NCI-H460; NCI-H460, read-out: Log10 TGI",> 100 µM
same,GI50,"NCI-H460; NCI-H460, read-out: Log10 GI50 (converted)",0.525 µM
same,CC50,"NCI-H460; NCI-H460, read-out: Log10 LC50 (converted)",> 100 µM
same,GI50,"RXF 393; RXF 393, read-out: Log10 GI50 (converted)",2.57 µM
same,CC50,"RXF 393; RXF 393, read-out: Log10 LC50 (converted)",49 µM
same,IC (TGI),"RXF 393; RXF 393, read-out: Log10 TGI",19.5 µM
same,GI50,A498; [1],1.82 µM
same,CC50,A498; [3],64.6 µM
same,IC (TGI),A498; [2],19.1 µM
same,CC50,A549/ATCC; [3],37.2 µM
same,IC (TGI),A549/ATCC; [2],13.5 µM
same,CC50,MCF7; [3],53.7 µM
same,IC (TGI),MCF7; [2],13.2 µM
same,GI50,SF-268; [1],0.0631 µM
same,IC (TGI),SF-268; [2],79.4 µM
same,CC50,PC-3; [3],47.9 µM
same,IC (TGI),PC-3; [2],11.5 µM
same,GI50,HOP-62; [1],0.417 µM
same,CC50,HOP-62; [3],52.5 µM
same,IC (TGI),HOP-62; [2],17.4 µM
same,CC50,"U251; U-251, read-out: Log10 LC50 (converted)",41.7 µM
same,IC (TGI),"U251; U-251, read-out: Log10 TGI (converted)",17 µM
same,IC (TGI),T-47D,2.57 µM
same,GI50,SK-MEL-2; [1],0.0389 µM
same,CC50,SK-MEL-2; [3],25.1 µM
same,IC (TGI),SK-MEL-2; [2],0.55 µM
same,GI50,ACHN; [1],0.0195 µM
same,CC50,ACHN; [3],> 100 µM
same,IC (TGI),ACHN; read-out: Log10 TGI,69.2 µM
same,CC50,HCT-116; [3],51.3 µM
same,IC (TGI),HCT-116; [2],12.6 µM
same,GI50,SF-539; [1],0.0166 µM
same,CC50,SF-539; [3],38 µM
same,IC (TGI),SF-539; [2],14.5 µM
same,IC (TGI),SR,> 100 µM
same,GI50,SNB-19; [1],0.537 µM
same,IC (TGI),SNB-19; [2],41.7 µM
same,GI50,"M14; M14, read-out: Log10 GI50 (converted)",1.26 µM
same,CC50,"M14; M14, read-out: Log10 LC50 (converted)",45.7 µM
same,IC (TGI),"M14; M14, read-out: Log10 TGI",17.8 µM
same,GI50,NCI-H23; [1],0.012 µM
same,IC (TGI),NCI-H23; [2],> 100 µM
same,IC (TGI),IGROVI,12 µM
same,GI50,EKVX; [1],1.15 µM
same,CC50,EKVX; [3],> 100 µM
same,IC (TGI),EKVX; [2],26.3 µM
same,CC50,MDA-N; [3],39.8 µM
same,IC (TGI),MDA-N; [2],5.75 µM
same,IC (TGI),SW-620,87.1 µM
same,IC (TGI),UO-31,57.5 µM
same,GI50,HOP-92; [1],0.0708 µM
same,CC50,HOP-92; [3],83.2 µM
same,IC (TGI),HOP-92; [2],17.4 µM
